In the experiment the test system is Leishmania major promastigotes. The experiment can be described thus: Anti-leishmanial assay (promastigote culture, 72 h, microscopic counting). It is filed as cell-based.
Where [1] appears, read: Leishmania major, 72 h, 72 h at 21-22° C., assays repeated thrice, read-out: Leishmanicidal Activity (IC50 in μM).
[2] abbreviates: 72 h at 21-22° C., assays repeated thrice, read-out: Leishmanicidal Activity (IC50 in μM).

Where two headings read alike, the source gives them in different places.

By IC50 is commonly meant the point on the concentration scale where inhibition reaches its midpoint.

Take `C[C@@H]1[C@H](O)[C@@H](C)/C=C/C=C/C=C/C=C/C=C/C=C/C=C/[C@H](O[C@@H]2O[C@H](C)[C@@H](O)[C@H](N)[C@@H]2O)C[C@@H]2O[C@](O)(C[C@@H](O)C[C@@H](O)[C@H](O)CC[C@@H](O)C[C@@H](O)CC(=O)O[C@H]1C)C[C@H](O)[C@H]2C(=O)O` [Amphotericin B, reference compound]: the IC50 under setting [1] is 0.29 ± 0.05 µM.
As to `C[C@]12CC[C@H]3[C@@H](CCC4=CC(=O)CC[C@@H]43)[C@@H]1CC[C@@H]2O` [Compound 1, 17β-Hydroxy-19-nor-4-androsten-3-one, reference compound], the IC50 by setting is: under setting [1], 29.6 to 80.2 µM; (read-out: Leishmanicidal Activity (IC50 in μM), 72 h at 21-22° C., assays repeated thrice, listed as Nandrolone (1)) 32 µM.
Turning to `C[C@]12[C@H](O)C[C@H]3[C@@H](CCC4=CC(=O)CC[C@@]43O)[C@@H]1CC[C@@H]2O` [Compound 2, 10β,12β,17β-Trihydroxy-19-nor-4-androsten-3-one], the IC50 under setting [2] was greater than 100 µM.
Same read-out and setting: the result for `C[C@]12CC[C@H]3[C@@H](CCC4=CC(=O)CC[C@@]43O)[C@@H]1C[C@@H](O)[C@@H]2O` [Compound 3, 10β,16α,17β-Trihydroxy-19-nor-4-androsten-3-one] reads 77.4 µM; that for `C[C@]12CC[C@H]3[C@@H](C[C@@H](O)C4=CC(=O)CC[C@@]43O)[C@@H]1CC[C@@H]2O` [Compound 4, 6β,10β,17β-Trihydroxy-19-nor-4-androsten-3-one], 70.9 µM.
Turning to `C[C@]12CC[C@H]3[C@@H](CCC4=CC(=O)CC[C@@]43O)[C@@H]1CC[C@@H]2O` [Compound 5, 10β,17β-Dihydroxy-19-nor-4-androsten-3-one], the IC50 under setting [2] came out at 54.9 µM.
As for `C[C@]12CC[C@H]3[C@@H](C[C@@H](O)C4=CC(=O)CC[C@@H]43)[C@@H]1CC[C@@H]2O` [Compound 6, 6β,17β-Dihydroxy-19-nor-4-androsten-3-one], the IC50 under setting [2] was determined as 80.2 µM.
Same read-out and setting: the result for `C[C@]12CC[C@H]3[C@@H](CCC4=CC(=O)CC[C@@]43O)[C@@H]1CCC2=O` [Compound 7, 10β-Hydroxy-19-nor-4-androsten-3,17-dione] reads 61.1 µM; that for `C[C@]12CC[C@H]3[C@@H](CCC4=CC(=O)CC[C@@H]43)[C@@H]1C[C@H](O)[C@@H]2O` [Compound 8, 16β,17β-Dihydroxy-19-nor-4-androsten-3-one], 29.6 µM.
With `N=C(N)c1ccc(OCCCCCOc2ccc(C(=N)N)cc2)cc1` [Pentamidine, reference compound], the IC50 was 5.09 ± 0.09 µM under setting [1] and 5.09 µM (Leishmania major, 72 h, 72 h at 21-22° C., read-out: IC50 against leishmaniasis (unit printed as M)).

(Values after patent publication US9173888B1, “Treatment and inhibition of protozoal diseases with nandrolone and its derivatives” (priority 2014, dated 2015).)
